One data set relates to Mus musculus. Put plainly: Antithrombotic activity in ICR mouse assessed as inhibition of platelet aggregation at 20 mg/kg, po measured after 1 hr relative to control. Type of data set: functional.
Data set [1] can be described thus: Toxicity in ip dosed mouse. Particulars: in vivo. Type of data set: organism-based.
Data set [2] concerns Mycobacterium tuberculosis. Put plainly: Antimycobacterial activity against Mycobacterium tuberculosis H37Ra. It is filed as functional.
The test system of a further data set is Meloidogyne incognita. Put plainly: Nematicidal activity against Meloidogyne incognita. Type of data set: functional.
Data set [3] concerns Human immunodeficiency virus 1. In words: Antiviral activity against HIV1 3B infected in human C8166 cells assessed as inhibition of virus-induced syncytia formation after 3 days. Type of data set: functional, organism-based. Particulars: Human immunodeficiency virus 1, 3B, C8166, 72 h.
Data set [4] can be described thus: Therapeutic Index, ratio of CC50 for human C8166 cells to EC50 for HIV1 3B infected in human C8166 cells. It is filed as toxicity, cell-based. The following applies: HIV-1 3B infected C8166 cells, read-out: Ratio CC50/EC50.
Data set [5] concerns Bacillus subtilis. In words: Antibacterial activity against Bacillus subtilis IFO-12732 assessed as diameter of inhibition zone at 50 ug measured after 24 hrs by agar diffusion method. It is filed as functional. Particulars: IFO-12732, 24 h, read-out: DIZ. A general note: In agar diffusion tests the substance spreads into inoculated agar from a disc or well.
Data set [6] has as its system Corynebacterium glutamicum. In words: Antibacterial activity against Corynebacterium lilium assessed as diameter of inhibition zone at 50 ug measured after 24 hrs by agar diffusion method. Type of data set: functional. The following applies: read-out: DIZ.
Data set [7] deals with Bacillus subtilis. In words: Antibacterial activity against Bacillus subtilis IAM 1609 assessed as diameter of inhibition zone at 50 ug measured after 24 hrs by agar diffusion method. Particulars: IAM 1609, 24 h, read-out: DIZ. Type of data set: functional.
The subject of a further data set is Staphylococcus aureus. Put plainly: Antibacterial activity against Staphylococcus aureus R-209 assessed as diameter of inhibition zone at 50 ug measured after 24 hrs by agar diffusion method. Type of data set: functional. The following applies: R-209, 24 h, read-out: DIZ.

Values after ≈ are worked out from the molar mass of the structure shown. *1 amine or outer side, *2 acyl side, *3 side chain or, on linkers, in order; H or OH if unused. Where a SMILES comes first, the peptide text is derived from it. [ ]: non-standard residue; d: D form. X1 = C[C@@H]([C@H](C)OC(=O)CC(C)(C)O)[C@@H](C(=O)[*:2])N(C)[*:1]; X5 = O=C([C@@H]1C[C@@]2(O)c3ccccc3N(O)[C@H]2N1[*:1])[*:2]; X6 = CC(=O)O[C@@H](C)[C@H](C)[C@@H](C(=O)[*:2])N(C)[*:1]; X3 = O=C([C@@H]1C[C@@]2(O)c3ccccc3N[C@H]2N1[*:1])[*:2]; X7 = CC(=O)O[C@@H](C(=O)[*:2])N(C)[*:1]; NMeVal(β-OH) = CN[C@H](C(=O)O)C(C)(C)O; X2 = CC(=O)O[C@H](C(=O)[*:2])N(C)[*:1]; NMeI = CC[C@H](C)[C@H](NC)C(=O)O; X4 = CN([C@H](O)C(=O)[*:2])[*:1]; NMeV = CN[C@H](C(=O)O)C(C)C; Sar = CNCC(=O)O

As a reminder, the inhibition in vivo is the change of the read-out against control, counted positive when it falls. For `N[C@@H](Cc1c[nH]c2ccccc12)C(=O)NCC(=O)N[C@@H](CS)C(=O)O` (H-Trp-Gly-Cys-OH), the inhibition in vivo at 20 mg/kg with Mus musculus is 83.3%.

The term LD50 denotes the dose expected to kill half of the subjects tested. Read a low LD50 as a more toxic substance. As to `CC[C@H](C)[C@@H]1NC(=O)CNC(=O)[C@@H]2Cc3c([nH]c4cc(O)ccc34)[S+]([O-])C[C@H](NC(=O)CNC1=O)C(=O)N[C@@H](CC(=O)O)C(=O)N1C[C@H](O)C[C@H]1C(=O)N[C@@H]([C@@H](C)[C@@H](O)CO)C(=O)N2` (some centres undefined), the LD50 in data set [1] was in the range of 0.2 to 0.5 mg/kg.

What is called MIC is the smallest concentration in the dilution series that meets the test's criterion for growth inhibition. A higher MIC goes with a need for much substance. As for `C=CC(C)(C)c1[nH]c2c(CC=C(C)C)cc(CC=C(C)C)cc2c1C[C@H]1NC(=O)[C@@H](C)NC1=O`, the MIC in data set [2] is 170 µM (≈ 78.4 µg/mL).

In the data set with Meloidogyne incognita, `CC[C@H](C)[C@@H]1NC(=O)[C@H](C(C)C)N(C)C(=O)[C@@H]2C[C@@]3(O)c4ccccc4N[C@H]3N2C(=O)CN(C)C(=O)[C@H]([C@@H](C)CC)N(C)C(=O)[C@H](C(C)C)NC(=O)[C@@H](O)N(C)C(=O)[C@H]([C@@H](C)[C@H](C)OC(=O)CC(C)(C)O)N(C)C(=O)[C@H](C(C)(C)O)N(C)C(=O)CN(C)C(=O)[C@H](C(C)C)N(C)C(=O)[C@H](C(C)C)N(C)C1=O` (cyclo(I[NMeV][NMeV][Sar][NMeVal(β-OH)][X1][X4]V[NMeI][Sar][X3][NMeV])) gave an LD90 of 2 to 5 µg/mL.

The molecule `CC[C@H](C)[C@@H]1NC(=O)CNC(=O)[C@@H]2Cc3c([nH]c4cc(O)ccc34)[S+]([O-])C[C@H](NC(=O)CNC1=O)C(=O)N[C@@H](CC(N)=O)C(=O)N1C[C@H](O)C[C@H]1C(=O)N[C@@H]([C@@H](C)[C@@H](O)CO)C(=O)N2` (some centres undefined) returned an LD50 in data set [1] of 0.2 to 0.5 mg/kg.

In the data set with Meloidogyne incognita, `CC[C@H](C)[C@@H]1NC(=O)[C@H](C(C)C)N(C)C(=O)[C@@H]2C[C@@]3(O)c4ccccc4N(O)[C@H]3N2C(=O)CN(C)C(=O)[C@H]([C@@H](C)CC)N(C)C(=O)[C@H](C(C)C)NC(=O)[C@@H](OC(C)=O)N(C)C(=O)[C@H]([C@@H](C)[C@H](C)OC(C)=O)N(C)C(=O)[C@H](C(C)(C)O)N(C)C(=O)CN(C)C(=O)[C@H](C(C)C)N(C)C(=O)[C@H](C(C)C)N(C)C1=O` (cyclo(I[NMeV][NMeV][Sar][NMeVal(β-OH)][X6][X2]V[NMeI][Sar][X5][NMeV])) displayed an LD90 of 2 to 5 µg/mL.

Regarding `CC[C@H](C)[C@@H]1NC(=O)[C@H](C(C)C)N(C)C(=O)[C@H](Cc2c[nH]c3ccccc23)NC(=O)CN(C)C(=O)[C@H]([C@@H](C)CC)N(C)C(=O)[C@H](C(C)C)NC(=O)CN(C)C(=O)[C@H]([C@@H](C)CC)N(C)C(=O)[C@H](C(C)C)N(C)C(=O)CN(C)C(=O)[C@H](C(C)C)N(C)C(=O)[C@H](C(C)C)N(C)C1=O` (HELM PEPTIDE1{I.[meV].[meV].[Sar].[meV].[meI].[Sar].V.[meI].[Sar].W.[meV]}$PEPTIDE1,PEPTIDE1,1:R1-12:R2$$$V2.0), in the data set on Meloidogyne incognita, the LD90 fell in the range of 2 to 5 µg/mL.

`CC[C@H](C)[C@@H]1NC(=O)[C@H](C(C)C)N(C)C(=O)[C@@H]2C[C@@]3(O)c4ccccc4N[C@H]3N2C(=O)CN(C)C(=O)[C@H]([C@@H](C)CC)N(C)C(=O)[C@H](C(C)C)NC(=O)[C@H](OC(C)=O)N(C)C(=O)[C@H]([C@@H](C)[C@H](C)OC(C)=O)N(C)C(=O)[C@H](C(C)(C)O)N(C)C(=O)CN(C)C(=O)[C@H](C(C)C)N(C)C(=O)[C@H](C(C)C)N(C)C1=O` (cyclo(I[NMeV][NMeV][Sar][NMeVal(β-OH)][X6][X7]V[NMeI][Sar][X3][NMeV])) had an LD90 with Meloidogyne incognita of 2 to 5 µg/mL.

As a reminder, the EC50 is the concentration giving half of the maximal effect. With `O=C(O)c1cc2c([nH]c3ccccc32)c(-c2ccc(CO)o2)n1` [FLAZINE], the EC50 in [3] amounted to 2360 nM. The selectivity ratio in data set [4] came to 12.1.

Molecule `CC[C@H](C)[C@@H]1NC(=O)CNC(=O)[C@@H]2Cc3c([nH]c4cc(O)ccc34)[S+]([O-])C[C@H](NC(=O)CNC1=O)C(=O)N[C@@H](CC(N)=O)C(=O)N1C[C@H](O)C[C@H]1C(=O)N[C@@H]([C@@H](C)[C@H](C)O)C(=O)N2` (some centres undefined) displayed an LD50 in [1] of 0.2 to 0.5 mg/kg.

`CC[C@H](C)[C@@H]1NC(=O)[C@H](C(C)C)N(C)C(=O)[C@@H]2C[C@@]3(O)c4ccccc4N(O)[C@H]3N2C(=O)CN(C)C(=O)[C@H]([C@@H](C)CC)N(C)C(=O)[C@H](C(C)C)NC(=O)[C@@H](OC(C)=O)N(C)C(=O)[C@H]([C@@H](C)[C@H](C)OC(=O)CC(C)(C)O)N(C)C(=O)[C@H](C(C)(C)O)N(C)C(=O)CN(C)C(=O)[C@H](C(C)C)N(C)C(=O)[C@H](C(C)C)N(C)C1=O` (cyclo(I[NMeV][NMeV][Sar][NMeVal(β-OH)][X1][X2]V[NMeI][Sar][X5][NMeV])): the LD90 in the data set on Meloidogyne incognita lay within 2 to 5 µg/mL.

`CC[C@H](C)[C@@H]1NC(=O)[C@H](C(C)C)N(C)C(=O)[C@@H]2C[C@@]3(O)c4ccccc4N(O)[C@H]3N2C(=O)CN(C)C(=O)[C@H]([C@@H](C)CC)N(C)C(=O)[C@H](C(C)C)NC(=O)CN(C)C(=O)[C@H]([C@@H](C)CC)N(C)C(=O)[C@H](C(C)(C)O)N(C)C(=O)CN(C)C(=O)[C@H](C(C)C)N(C)C(=O)[C@H](C(C)C)N(C)C1=O` (HELM PEPTIDE1{I.[meV].[meV].[Sar].[CN([C@H](C(=O)[*:2])C(C)(C)O)[*:1]].[meI].[Sar].V.[meI].[Sar].[O=C([C@@H]1C[C@@]2(O)c3ccccc3N(O)[C@H]2N1[*:1])[*:2]].[meV]}$PEPTIDE1,PEPTIDE1,1:R1-12:R2$$$V2.0): the LD90 with Meloidogyne incognita lay within 2 to 5 µg/mL.

As for `CC[C@@](C)(NC(=O)C(C)(C)NC(=O)[C@@H](NC(=O)[C@H](Cc1c[nH]c2ccccc12)NC(C)=O)C(C)C)C(=O)N[C@@H](C)C(=O)N[C@@H](CCC(N)=O)C(=O)N[C@@H](C)C(=O)NC(C)(C)C(=O)N[C@@H](CO)C(=O)NC(C)(C)C(=O)N[C@@H](C)C(=O)N[C@@H](CC(C)C)C(=O)NC(C)(C)C(=O)N[C@@H](CCC(N)=O)C(=O)N[C@H](CO)CC(C)C`, the zone of inhibition at 50 µg/disc (with Bacillus subtilis [5]; in [6]; with Bacillus subtilis [7]; in the data set on Staphylococcus aureus) was 13 to 18 mm each time.

For `CC(=O)N[C@@H](Cc1c[nH]c2ccccc12)C(=O)N[C@H](C(=O)NC(C)(C)C(=O)NC(C)(C)C(=O)N[C@@H](C)C(=O)N[C@@H](CCC(N)=O)C(=O)N[C@@H](C)C(=O)NC(C)(C)C(=O)N[C@@H](CO)C(=O)NC(C)(C)C(=O)N[C@@H](C)C(=O)N[C@@H](CC(C)C)C(=O)NC(C)(C)C(=O)N[C@@H](CCC(N)=O)C(=O)N[C@H](CO)CC(C)C)C(C)C` (HELM PEPTIDE1{[ac].W.V.[Aib].[Aib].A.Q.A.[Aib].S.[Aib].A.L.[Aib].Q.[CC(C)C[C@@H](CO)N[*:1]]}$$$$V2.0), the zone of inhibition at 50 µg/disc (in the data set on Bacillus subtilis [5]; in [6]; in the data set on Bacillus subtilis [7]; in the data set on Staphylococcus aureus) was 13 to 18 mm each time.

`CC[C@H](C)[C@@H]1NC(=O)[C@H](C(C)C)N(C)C(=O)[C@@H]2C[C@@]3(O)c4ccccc4N[C@H]3N2C(=O)CN(C)C(=O)[C@H]([C@@H](C)CC)N(C)C(=O)[C@H](C(C)C)NC(=O)[C@@H](OC(C)=O)N(C)C(=O)[C@H]([C@@H](C)[C@H](C)OC(=O)CC(C)(C)O)N(C)C(=O)[C@H](C(C)(C)O)N(C)C(=O)CN(C)C(=O)[C@H](C(C)C)N(C)C(=O)[C@H](C(C)C)N(C)C1=O` (cyclo(I[NMeV][NMeV][Sar][NMeVal(β-OH)][X1][X2]V[NMeI][Sar][X3][NMeV])) displayed an LD90 in the data set with Meloidogyne incognita of 2 to 5 µg/mL.

Consider `CC[C@H](C)[C@@H]1NC(=O)[C@H](C(C)C)N(C)C(=O)[C@@H]2C[C@@]3(O)c4ccccc4N(O)[C@H]3N2C(=O)CN(C)C(=O)[C@H]([C@@H](C)CC)N(C)C(=O)[C@H](C(C)C)NC(=O)[C@@H](O)N(C)C(=O)[C@H]([C@@H](C)CC)N(C)C(=O)[C@H](C(C)(C)O)N(C)C(=O)CN(C)C(=O)[C@H](C(C)C)N(C)C(=O)[C@H](C(C)C)N(C)C1=O` (cyclo(I[NMeV][NMeV][Sar][NMeVal(β-OH)][NMeI][X4]V[NMeI][Sar][X5][NMeV])), for which, in the data set on Meloidogyne incognita, the LD90 is 2 to 5 µg/mL.

In the data set with Meloidogyne incognita, `CC[C@H](C)[C@@H]1NC(=O)[C@H](C(C)C)N(C)C(=O)[C@@H]2C[C@@]3(O)c4ccccc4N[C@H]3N2C(=O)CN(C)C(=O)[C@H]([C@@H](C)CC)N(C)C(=O)[C@H](C(C)C)NC(=O)CN(C)C(=O)[C@H]([C@@H](C)CC)N(C)C(=O)[C@H](C(C)(C)O)N(C)C(=O)CN(C)C(=O)[C@H](C(C)C)N(C)C(=O)[C@H](C(C)C)N(C)C1=O` (HELM PEPTIDE1{I.[meV].[meV].[Sar].[CN([C@H](C(=O)[*:2])C(C)(C)O)[*:1]].[meI].[Sar].V.[meI].[Sar].[O=C([C@@H]1C[C@@]2(O)c3ccccc3N[C@H]2N1[*:1])[*:2]].[meV]}$PEPTIDE1,PEPTIDE1,1:R1-12:R2$$$V2.0) came in with an LD90 of 2 to 5 µg/mL.

The values are drawn from ChEMBL document CHEMBL4190273, “Mushroom-Derived Indole Alkaloids” (J Nat Prod, 2017).
